Measurements as given in PMC11714206, “Massively Parallel Screening of Toll/Interleukin‐1 Receptor (TIR)‐Derived Peptides Reveals Multiple Toll‐Like Receptors (TLRs)‐Targeting Immunomodulatory Peptides” (Advanced Science, 2024).
One block for each sequence: values may come before it.

Biological target: T1, MAL^TIR (Homo sapiens, UniProt P58753)
T1 construct: MAL (residues 79–221); 6xHis; made in house; host or cells: E. coli BL21 (DE3)
Assay: T‐Surf phage library (P8 and P3) selection against MAL^TIR, four rounds, NGS read counts
Type: binding
Conditions: for P8_MAL Rank (after) / P8_MAL Rank (before): P8 library; for P3_MAL Rank (after) / P3_MAL Rank (before): P3 library; for Population: P3_MAL pool: P3 T-Surf phage library, 4th round of selection against MAL TIR, share of NGS reads
How it was run: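 Coat TIR domain 5 µg mL^−1 overnight; block 0.2% BSA/PBS 1 h, 4 °C; add phage library 1 h, RT; wash ×4 PBS/0.5% Tween‐20; elute 100 mM HCl, neutralize Tris; amplify in TG1, PEG‐precipitate. Repeat to round 4; barcode PCR, NovaSeq, count reads.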

[1] = 4R selection against MAL, rank after grouping
[2] = 4R selection against MAL, rank before grouping
[3] = P8_MAL: rank by count after grouping
[4] = P8_MAL: rank by count before grouping
[5] = selection against MAL, rank by count after grouping
[6] = selection against MAL, rank by count before grouping
[7] = P3_MAL: rank by count after grouping
[8] = P3_MAL: rank by count before grouping
[9] = selection against MAL, rank after grouping
[10] = selection against MAL, rank before grouping
[11] = selection against MAL TIR, rank by count after grouping
[12] = selection against MAL TIR, rank by count before grouping

T1 sequence (P58753 79-221): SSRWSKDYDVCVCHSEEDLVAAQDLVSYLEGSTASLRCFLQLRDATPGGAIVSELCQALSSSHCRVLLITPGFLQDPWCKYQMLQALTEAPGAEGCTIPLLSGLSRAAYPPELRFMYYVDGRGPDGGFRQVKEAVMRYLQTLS

Sequence: QLIQQWIELQLRQLHL
- P8_MAL Rank (after) [1]: 584
- P8_MAL Rank (before) [2]: 2356

Sequence: QLIQQWMNCTCTSCI
- Rank (after) [3]: 167
- Rank (before) [4]: 2379

Sequence: RAFVAHLYEALKKRAN
- P3_MAL Rank (after) [9]: 547
- P3_MAL Rank (before) [10]: 2451

Sequence: RAFVAHPQELIQKKQQ
- P3_MAL Rank (after) [5]: 739
- P3_MAL Rank (before) [6]: 2454

Sequence: RFFLESLKQLLRSDGR
- Rank (after) [3]: 455
- Rank (before) [4]: 2301

Sequence: RFWERPRYLTPSNNHR
- P3_MAL Rank (after) [5]: 769
- P3_MAL Rank (before) [6]: 2322

Sequence: RGFLCHLRHHLQATDH
- P3_MAL Rank (after) [5]: 706
- P3_MAL Rank (before) [6]: 2352

Sequence: RGFLNHLHHHLQPNDH
- P3_MAL Rank (after) [5]: 703
- P3_MAL Rank (before) [6]: 2351

Sequence: RGFLSHLHRYLVQRGV
- Rank (after) [7]: 109
- Rank (before) [8]: 250

Sequence: RGFLSHLRHHLPAKDQ
- P3_MAL Rank (after) [9]: 498
- P3_MAL Rank (before) [10]: 2380

Sequence: RGFLSHLRHHLPAKEH
- P3_MAL Rank (after) [11]: 275
- P3_MAL Rank (before) [12]: 2395

Sequence: RGFLSHLRHHLQAIDH
- Population: 0.00488%

Sequence: RGFLSHLRHHLQAKD
- P3_MAL Rank (after) [1]: 648
- P3_MAL Rank (before) [2]: 2376

Sequence: RGFLSHLRHHLQEQDH
- P3_MAL Rank (after) [11]: 256
- P3_MAL Rank (before) [12]: 2378

Sequence: RGFLSHLRHHLQVKEQ
- P3_MAL Rank (after) [5]: 733
- P3_MAL Rank (before) [6]: 2370

Sequence: RGFLSHLRHPVHPKDH
- P3_MAL Rank (after) [1]: 615
- P3_MAL Rank (before) [2]: 2367

Sequence: RGFLSHLRNHLQAKDP
- P3_MAL Rank (after) [11]: 210
- P3_MAL Rank (before) [12]: 2408

Sequence: RGFLSHLSNLLQAKDH
- P3_MAL Rank (after) [11]: 205
- P3_MAL Rank (before) [12]: 2392

Sequence: RGFLSHMRHPLQAKDH
- P3_MAL Rank (after) [11]: 281
- P3_MAL Rank (before) [12]: 2398

Sequence: RGFLYQAFAREGFKIFM
- P3_MAL Rank (after) [1]: 581
- P3_MAL Rank (before) [2]: 2353

Sequence: RGFMSHLRHPLQAKDH
- P3_MAL Rank (after) [1]: 616
- P3_MAL Rank (before) [2]: 2412

Sequence: RGFRSHLRQHLQAKDH
- P3_MAL Rank (after) [5]: 772
- P3_MAL Rank (before) [6]: 2410

Sequence: RGFTSHLYHRIQRNSN
- P3_MAL Rank (after) [1]: 605
- P3_MAL Rank (before) [2]: 2419

Results, then the sequence that gave them:

- Rank (after) [3]: 443
- Rank (before) [4]: 2381
Sequence: QLIQQWSELHLHQLQL

- P8_MAL Rank (after) [1]: 621
- P8_MAL Rank (before) [2]: 2387
Sequence: QLIQQWSELHLLQLHL

- P3_MAL Rank (after) [5]: 678
- P3_MAL Rank (before) [6]: 2463
Sequence: RAFSSHLRHHLLAKDQ

- Rank (after) [7]: 182
- Rank (before) [8]: 2432
Sequence: RAFVADLDEALKQRAL

- P8_MAL Rank (after) [1]: 626
- P8_MAL Rank (before) [2]: 2172
Sequence: RDFVAYLCQALANKGI

- P8_MAL Rank (after) [1]: 640
- P8_MAL Rank (before) [2]: 2171
Sequence: RDFVAYLFQALANKGL

- Rank (after) [3]: 109
- Rank (before) [4]: 2531
Sequence: REFIKKIILWMNPKIV

- P3_MAL Rank (after) [9]: 487
- P3_MAL Rank (before) [10]: 2617
Sequence: RFFQNKMRYHLQQLQH

- P8_MAL Rank (after) [9]: 489
- P8_MAL Rank (before) [10]: 2304
Sequence: RFMMKFRTELDRGNGG

- Rank (after) [7]: 449
- Rank (before) [8]: 2320
Sequence: RFWERLRYMMPDSSL

- P8_MAL Rank (after) [1]: 672
- P8_MAL Rank (before) [2]: 2302
Sequence: RFYEAQLILVLRNTKM

- P3_MAL Rank (after) [1]: 590
- P3_MAL Rank (before) [2]: 2423
Sequence: RGCLSHLRHHLHAKEH

- Rank (after) [7]: 390
- Rank (before) [8]: 2406
Sequence: RGFLAICVIICRRKI

- P3_MAL Rank (after) [1]: 649
- P3_MAL Rank (before) [2]: 2355
Sequence: RGFLEPLRHHLQAKEQ

- P3_MAL Rank (after) [9]: 548
- P3_MAL Rank (before) [10]: 2403
Sequence: RGFLNQLRQHLHAKDH

- P3_MAL Rank (after) [5]: 747
- P3_MAL Rank (before) [6]: 2390
Sequence: RGFLSHLHHALRLNKIEAF

- Rank (after) [7]: 395
- Rank (before) [8]: 2364
Sequence: RGFLSHLLLHLQAKDH

- P3_MAL Rank (after) [11]: 193
- P3_MAL Rank (before) [12]: 2405
Sequence: RGFLSHLRHLLQAKDP

- P3_MAL Rank (after) [9]: 552
- P3_MAL Rank (before) [10]: 2430
Sequence: RGFLSHLRHYLQAKAH

- P3_MAL Rank (after) [9]: 497
- P3_MAL Rank (before) [10]: 2386
Sequence: RGFLSHLRQHLKAKDH

- Rank (after) [7]: 129
- Rank (before) [8]: 333
Sequence: RGFLSHLRYHLPAPQH

- P3_MAL Rank (after) [1]: 585
- P3_MAL Rank (before) [2]: 2391
Sequence: RGFLSHLSHPLQAKDP

- Rank (after) [7]: 423
- Rank (before) [8]: 2362
Sequence: RGFLSHLYQGLKNRGI

- P3_MAL Rank (after) [9]: 539
- P3_MAL Rank (before) [10]: 2396
Sequence: RGFLSHRRYHLQAKDH

- P3_MAL Rank (after) [11]: 283
- P3_MAL Rank (before) [12]: 894
Sequence: RGFLSKLSQHILKREK

- Rank (after) [7]: 440
- Rank (before) [8]: 2401
Sequence: RGFLSNLGHHLQAKDH

- Population: 0.00902%
- Rank (after) [7]: 103
- Rank (before) [8]: 111
Sequence: RGFREGLWRLLELSKK

- Rank (after) [7]: 450
- Rank (before) [8]: 2429
Sequence: RGLLSHLRHHLLGKDH
